These results are taken from US7291641B2, “Derivatives of heterocycles with 5 members, their preparation and their use as medicaments” (Societe de Conseils de Recherches et d'Applications …, priority 1999, dated 2007).

The structures appear in SMILES notation. Counter-ions that a name gives are not always drawn.

For the compound `CC(C)(NCc1ccccc1)c1nc(-c2ccccc2)c[nH]1` [Example 139, N-benzyl-2-(4-phenyl-1H-imidazol-2-yl)-2-propanamine], the melting point lay in the range of 136 to 138 °C.
The same measure for `Fc1ccc(-c2c[nH]c([C@@H](NC3CCCCC3)C3CCCCC3)n2)cc1` [Example 283, N-{(S)-cyclohexyl[4-(4-fluorophenyl)-1H-imidazol-2-yl]methyl}-cyclohexanamine]: 260 to 262 °C; for `NC(Cc1c[nH]c2cc(Cl)ccc12)c1nc(-c2ccccc2)c[nH]1` (racemic) (as salt: hydrochloride) [Example 122, (R,S)-2-(6-chloro-1H-indol-3-yl)-1-(4-phenyl-1H-imidazol-2-yl)ethylamine]: 210 to 212 °C; for `CC(C)(C)OC(=O)NCc1nc(-c2ccccc2)c[nH]1` [Example 103, tert-butyl (4-phenyl-1H-imidazol-2-yl)methylcarbamate]: 170 to 172 °C.
As to `CCCCCCC(NCc1ccccc1)c1nc(-c2cccc(OC)c2)c[nH]1` (racemic) [Example 216, (R,S)-N-benzyl-1-[4-(3-methoxyphenyl)-1H-imidazol-2-yl]-1-heptanamine], the melting point was 141 to 142 °C.
The value for `CCCCCCC(N)c1nc(-c2ccc(OC)cc2)c[nH]1` (racemic) (as salt: hydrochloride) [Example 190, (R,S)-1-[4-(4-methoxyphenyl)-1H-imidazol-2-yl]heptylamine] was 231 to 232 °C.
The value for `CCCCOC(=O)NCCc1nc(-c2ccc(-c3ccccc3F)cc2)c[nH]1` [Example 396, butyl 2-[4-(2′-fluoro-1,1′-biphenyl-4-yl)-1H-imidazol-2-yl]ethylcarbamate] was 113.8 °C; that for `O=C(NCCc1nc(-c2ccc(-c3ccc(Br)cc3)cc2)c[nH]1)OCC1CCC1` (as salt: hydrochloride) [Example 337, cyclobutylmethyl 2-[4-(4′-bromo-1,1′-biphenyl-4-yl)-1H-imidazol-2-yl]ethylcarbamate] was 214 to 215 °C; that for `c1ccc(CNC2(c3nc(-c4ccccc4)c[nH]3)CCCCC2)cc1` [Example 123, N-benzyl-1-(4-phenyl-1H-imidazol-2-yl)cyclohexanamine] was 114 to 116 °C.
The value for `CCCCC(NCc1ccccc1)c1nc(-c2ccccc2)c[nH]1` (racemic) [Example 186, (R,S)-N-benzyl-1-(4-phenyl-1H-imidazol-2-yl)-1-pentanamine] was 200 to 202 °C; that for `CC(C)(C)OC(=O)NC1(c2nc(-c3ccccc3)c[nH]2)CCCCC1` [Example 113, tert-butyl 1-(4-phenyl-1H-imidazol-2-yl)cyclohexylcarbamate] was 170 to 172 °C; that for `Cn1cc(-c2ccccc2)nc1[C@@H](Cc1c[nH]c2ccccc12)NC(=O)OC(C)(C)C` [Example 148, tert-butyl (1R)-2-(1H-indol-3-yl)-1-(1-methyl-4-phenyl-1H-imidazol-2-yl)ethylcarbamate] was 96 to 100 °C.
With `CCCCCCC(NC1CCCCC1)c1nc(-c2ccc(Cl)c(Cl)c2)c[nH]1` (racemic) (as salt: hydrochloride) [Example 250, (R,S)-N-{1-[4-(3,4-dichlorophenyl)-1H-imidazol-2-yl]heptyl}-cyclohexanamine], the melting point worked out at 194 °C.
The same measure for `CCCCCCC(N)c1nc(-c2ccccc2OC)c[nH]1` (racemic) (as salt: hydrochloride) [Example 185, (R,S)-1-[4-(2-methoxyphenyl)-1H-imidazol-2-yl]heptylamine]: 238 to 240 °C.
With `Cn1cc(-c2ccccc2)nc1[C@H](N)Cc1c[nH]c2ccccc12` (as salt: hydrochloride) [Example 151, (1R)-2-(1H-indol-3-yl)-1-(1-methyl-4-phenyl-1H-imidazol-2-yl)ethanamine], the melting point was in the range of 206 to 210 °C.
Regarding `CC(C)C[C@@H](NCc1ccccc1)c1nc(-c2ccccc2)c[nH]1` [Example 125, (1R)-N-benzyl-3-methyl-1-(4-phenyl-1H-imidazol-2-yl)-1-butanamine], the melting point fell in the range of 134 to 135 °C.
The same measure for `CCCCOC(=O)NCCc1nc(-c2ccc(-c3ccc(SC)cc3)cc2)c[nH]1` [Example 397, butyl 2-{4-[4′-(methylthio)-1,1′-biphenyl-4-yl]-1H-imidazol-2-yl}ethylcarbamate]: 167.9 °C.
As for `CN(Cc1ccccc1)[C@H](Cc1c[nH]c2ccccc12)c1nc(-c2ccccc2)c[nH]1` [Example 46, (1R)-N-benzyl-2-(1H-indol-3-yl)-N-methyl-1-(4-phenyl-1H-imidazol-2-yl)ethanamine], the melting point lay in the range of 110 to 112 °C.
With `N[C@H](Cc1c[nH]c2ccccc12)c1nc(-c2ccccc2)c(-c2ccccc2)[nH]1` (as salt: hydrochloride), the melting point was more than 260 °C.
`NCCCc1nc(-c2ccc(-c3ccccc3)cc2)c[nH]1` (as salt: hydrochloride) [Example 179, 3-(4-[1,1′-biphenyl]-4-yl-1H-imidazol-2-yl)-1-propanamine] displayed a melting point of more than 260 °C.
The same measure for `CCCCCCOC(=O)NCCc1nc(-c2cc(C(C)(C)C)c(O)c(C(C)(C)C)c2)c[nH]1` [Example 386, hexyl 2-[4-(3,5-ditert-butyl-4-hydroxyphenyl)-1H-imidazol-2-yl]ethylcarbamate]: 197.4 °C; for `c1ccc(CN[C@@H](Cc2c[nH]c3ccccc23)c2nc(-c3ccccc3)c[nH]2)cc1` [Example 93, (1S)-N-benzyl-2-(1H-indol-3-yl)-1-(4-phenyl-1H-imidazol-2-yl)ethanamine]: 118 to 120 °C.
The value for `CC(C)(C)c1ccc(-c2c[nH]c(CCNC(=O)OCc3ccccc3)n2)cc1` [Example 382, benzyl 2-[4-(4-tert-butylphenyl)-1H-imidazol-2-yl]ethylcarbamate] was 173 °C.
